Reference: article PMC9057582, “HIF inhibitor 32-134D eradicates murine hepatocellular carcinoma in combination with anti-PD1 therapy” (The Journal of Clinical Investigation, 2022)

Test: Mouse pharmacokinetics (plasma, LC-MS/MS)
Type: in vivo, C57BL/6J mice
Conditions: male, C57BL/6J, ip, single intraperitoneal injection of 40 mg/kg
Procedure: We employed liquid chromatography and tandem mass spectrometry (LC-MS/MS) to quantify the plasma concentration of 32-134D over 24 hours following a single intraperitoneal injection of 40 mg/kg (Figure 9). The maximum plasma concentration (Cmax) of 20 μM occurred at 4 hours with a biexponential decline. […] Further studies are required to determine whether steady-state levels are achieved with daily administration.
Figure 9 Concentration-time profiles of 32-134D in mice (n = 3 per time point) treated with a single dose of 32-134D. Plasma was obtained over 24 hours, with 32-134D concentrations determined by LC-MS/MS. […] Data points and error bars represent mean and SD of 3 replicates, respectively.
Male C57BL/6J mice were administered 32-134D at 40 mg/kg as a single intraperitoneal injection. Mice (n = 3 per time point) were euthanized at 0.5, 1, 2, 4, 8, 16, and 24 hours after injection. Compound 32-134D was quantified in plasma by LC-MS/MS (see Supplemental Methods). Pharmacokinetic parameters were calculated from mean concentration-time data using noncompartmental methods in Phoenix WinNonlin version 8.3 (Certara). The Cmax and time to Cmax (tmax) were the observed values. The AUClast was calculated using the log-linear trapezoidal method. AUC was extrapolated to infinity (AUCINF) by dividing the last quantifiable concentration by the terminal disposition rate constant (λz). The λz was determined from at least 3 points on the slope of the terminal phase of the concentration-time profile. The t1/2 was determined by dividing 0.693 by λz. Cl/F was calculated by dividing the dose administered by AUCINF. V/F was calculated by dividing Cl/F by λz. If the percentage AUC extrapolated was greater than 20% or the r^2 of λz was less than 0.85, the AUCINF, Cl/F, t1/2, and V/F were not reported.

CL/F (read-out: apparent clearance (Cl/F)): 14.5 mL/min/kg | Vd/F (read-out: apparent volume of distribution (V/F)): 6.1 L/kg | AUC(0-inf) (read-out: area under the curve extrapolated to infinity (AUCINF)): 96.7 µM·h | Cmax (read-out: maximum plasma concentration (Cmax)): 20 µM | half-life (read-out: terminal half-life (t1/2) (converted)): 4.1 h
Structure (SMILES): Brc1ccc2c(-c3csc(-c4c[nH]c5c(Br)cccc45)n3)c[nH]c2c1 [Compound 32-134D]
